In US20250145665A1, “MACROCYCLIC PEPTIDES USEFUL AS MODULATORS OF TNF ALPHA” (Bristol-Myers Squibb Company, priority 2023, published 2025):
Positions of bridges follow the written chain, without caps; N, C: chain ends. Non-standard residues stand in square brackets, D forms with d. Residues, ends and D or L forms follow the SMILES beside them. Ala(morpholin-4-yl) = N[C@@H](CN1CCOCC1)C(=O)O; Phe(4-CH2NH2) = NCc1ccc(C[C@H](N)C(=O)O)cc1; Bip = N[C@@H](Cc1ccc(-c2ccccc2)cc1)C(=O)O; Phe(3-OMe) = COc1cccc(C[C@H](N)C(=O)O)c1; Phe(4-NH2) = Nc1ccc(C[C@H](N)C(=O)O)cc1; Phe(4-F) = N[C@@H](Cc1ccc(F)cc1)C(=O)O; Phe(2-F) = N[C@@H](Cc1ccccc1F)C(=O)O; Val(3-OH) = CC(C)(O)[C@H](N)C(=O)O; Hyp = O=C(O)[C@@H]1C[C@@H](O)CN1; 3Pal = N[C@@H](Cc1cccnc1)C(=O)O; Tic = O=C(O)[C@@H]1Cc2ccccc2CN1; Aze = O=C(O)[C@@H]1CCN1; Sar = CNCC(=O)O

Target: TNFα (Homo sapiens, UniProt P01375)
Experiment: TNF-Induced HEK-Blue Assay
Type: cell-based
Conditions: HEK-Blue-CD40L cells, NF-kB-driven secreted alkaline phosphatase reporter; TNFα 0.5 ng/ml; 18 h; read-out: TNF induced HEK-Blue assay IC50 value

Chain of TNFα (P01375 77-233 limits assumed): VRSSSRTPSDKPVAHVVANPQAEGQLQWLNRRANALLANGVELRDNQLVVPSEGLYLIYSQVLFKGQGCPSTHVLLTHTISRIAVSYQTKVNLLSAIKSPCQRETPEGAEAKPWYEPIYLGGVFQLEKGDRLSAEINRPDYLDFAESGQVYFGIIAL

| SMILES | IC50 [nM] |
| --- | --- |
| CC(C)C[C@@H]1NC(=O)[C@H](CCCNC(=N)N)NC(=O)[C@H](C(C)C)NC(=O)[C@@H]2CCCN2C(=O)[C@H](Cc2ccc(N)cc2)NC(=O)[C@H](CCCNC(=N)N)NC(=O)[C@H](CC(=O)O)NC(=O)[C@@H]2CCCN2C(=O)CN(C)C(=O)[C@H](Cc2ccc(-c3ccccc3)cc2)NC(=O)[C@H](Cc2ccc(-c3ccccc3)cc2)NC(=O)[C@H](CN2CCOCC2)NC(=O)CSC[C@@H](C(=O)NCC(N)=O)NC1=O [Example 55] ({CH2CO}-[Ala(morpholin-4-yl)][Bip][Bip][Sar]PDR[Phe(4-NH2)]PVRLCG-NH2; thioether N-13) | 50 to 200 |
| CC(C)C[C@@H]1NC(=O)[C@H](CCCNC(=N)N)NC(=O)[C@H](C(C)C)NC(=O)[C@@H]2CCCN2C(=O)[C@H](Cc2ccc(O)cc2)NC(=O)[C@H](CCCNC(=N)N)NC(=O)[C@H](CC(=O)O)NC(=O)[C@@H]2CCCN2C(=O)CN(C)C(=O)[C@H](Cc2ccc(-c3ccccc3)cc2)NC(=O)[C@H](Cc2ccc(-c3ccccc3)cc2)NC(=O)[C@H](CN2CCOCC2)NC(=O)CSC[C@@H](C(=O)NCC(N)=O)NC1=O [Example 56] ({CH2CO}-[Ala(morpholin-4-yl)][Bip][Bip][Sar]PDRYPVRLCG-NH2; thioether N-13) | 50 to 200 |
| CC(C)C[C@@H]1NC(=O)[C@H](CCCNC(=N)N)NC(=O)[C@H](C(C)C)NC(=O)[C@@H]2CCCN2C(=O)[C@H](Cc2ccc(CN)cc2)NC(=O)[C@H](CCCNC(=N)N)NC(=O)[C@H](CC(=O)O)NC(=O)[C@@H]2CCCN2C(=O)CN(C)C(=O)[C@H](Cc2ccc(-c3ccccc3)cc2)NC(=O)[C@H](Cc2ccc(-c3ccccc3)cc2)NC(=O)[C@H](C(C)(C)O)NC(=O)CSC[C@@H](C(=O)NCC(N)=O)NC1=O [Example 57] ({CH2CO}-[Val(3-OH)][Bip][Bip][Sar]PDR[Phe(4-CH2NH2)]PVRLCG-NH2; thioether N-13) | 50 to 200 |
| CC(C)C[C@@H]1NC(=O)[C@H](CCCNC(=N)N)NC(=O)[C@H](C(C)C)NC(=O)[C@@H]2CCCN2C(=O)[C@H](Cc2ccc(F)cc2)NC(=O)[C@H](CCCNC(=N)N)NC(=O)[C@H](CC(=O)O)NC(=O)[C@@H]2CCCN2C(=O)CN(C)C(=O)[C@H](Cc2ccc(-c3ccccc3)cc2)NC(=O)[C@H](Cc2ccc(-c3ccccc3)cc2)NC(=O)[C@H](C(C)(C)O)NC(=O)CSC[C@@H](C(=O)NCC(N)=O)NC1=O [Example 58] ({CH2CO}-[Val(3-OH)][Bip][Bip][Sar]PDR[Phe(4-F)]PVRLCG-NH2; thioether N-13) | 50 to 200 |
| CC(C)C[C@@H]1NC(=O)[C@H](CCCNC(=N)N)NC(=O)[C@H](C(C)C)NC(=O)[C@@H]2CCCN2C(=O)[C@H](Cc2ccccc2F)NC(=O)[C@H](CCCNC(=N)N)NC(=O)[C@H](CC(=O)O)NC(=O)[C@@H]2CCCN2C(=O)CN(C)C(=O)[C@H](Cc2ccc(-c3ccccc3)cc2)NC(=O)[C@H](Cc2ccc(-c3ccccc3)cc2)NC(=O)[C@H](C(C)(C)O)NC(=O)CSC[C@@H](C(=O)NCC(N)=O)NC1=O [Example 59] ({CH2CO}-[Val(3-OH)][Bip][Bip][Sar]PDR[Phe(2-F)]PVRLCG-NH2; thioether N-13) | 200 to 2000 |
| CC(C)C[C@@H]1NC(=O)[C@H](CCCNC(=N)N)NC(=O)[C@H](C(C)C)NC(=O)[C@@H]2CCCN2C(=O)[C@H](Cc2cccnc2)NC(=O)[C@H](CCCNC(=N)N)NC(=O)[C@H](CC(=O)O)NC(=O)[C@@H]2CCCN2C(=O)CN(C)C(=O)[C@H](Cc2ccc(-c3ccccc3)cc2)NC(=O)[C@H](Cc2ccc(-c3ccccc3)cc2)NC(=O)[C@H](C(C)(C)O)NC(=O)CSC[C@@H](C(=O)NCC(N)=O)NC1=O [Example 60] ({CH2CO}-[Val(3-OH)][Bip][Bip][Sar]PDR[3Pal]PVRLCG-NH2; thioether N-13) | 200 to 2000 |
| CC(C)C[C@@H]1NC(=O)[C@H](CCCNC(=N)N)NC(=O)[C@H](C(C)C)NC(=O)[C@@H]2CCCN2C(=O)[C@H](Cc2ccc(N)cc2)NC(=O)[C@H](CCCNC(=N)N)NC(=O)[C@H](CC(=O)O)NC(=O)[C@@H]2CCCN2C(=O)CN(C)C(=O)[C@H](Cc2ccc(-c3ccccc3)cc2)NC(=O)[C@H](Cc2ccc(-c3ccccc3)cc2)NC(=O)[C@H](C(C)(C)O)NC(=O)CSC[C@@H](C(=O)NCC(N)=O)NC1=O [Example 61] ({CH2CO}-[Val(3-OH)][Bip][Bip][Sar]PDR[Phe(4-NH2)]PVRLCG-NH2; thioether N-13) | 200 to 2000 |
| CC(C)C[C@@H]1NC(=O)[C@H](Cc2ccc(O)cc2)NC(=O)[C@H](C(C)C)NC(=O)[C@@H]2CCCN2C(=O)[C@H](C(C)C)NC(=O)[C@@H](CCCNC(=N)N)NC(=O)[C@H](CC(=O)O)NC(=O)[C@H](Cc2ccc(O)cc2)NC(=O)CN(C)C(=O)[C@H](Cc2ccc(-c3ccccc3)cc2)NC(=O)[C@H](Cc2ccc(-c3ccccc3)cc2)NC(=O)[C@H](Cc2ccccc2)NC(=O)CSC[C@@H](C(=O)NCC(N)=O)NC1=O [Example 62] ({CH2CO}-F[Bip][Bip][Sar]YD[dR]VPVYLCG-NH2; thioether N-13) | 50 to 200 |
| COc1cccc(C[C@@H]2NC(=O)[C@H](C(C)C)NC(=O)[C@@H]3CCCN3C(=O)[C@H](C(C)C)NC(=O)[C@H](CCCNC(=N)N)NC(=O)[C@H](CC(=O)O)NC(=O)[C@@H]3CCCN3C(=O)CN(C)C(=O)[C@H](Cc3ccc(-c4ccccc4)cc3)NC(=O)[C@H](Cc3ccc(-c4ccccc4)cc3)NC(=O)[C@H](Cc3ccccc3)NC(=O)CSC[C@@H](C(=O)NCC(N)=O)NC(=O)[C@H](CC(C)C)NC2=O)c1 [Example 63] ({CH2CO}-F[Bip][Bip][Sar]PDRVPV[Phe(3-OMe)]LCG-NH2; thioether N-13) | 200 to 2000 |
| CC(C)C[C@@H]1NC(=O)[C@H](Cc2ccc(O)cc2)NC(=O)[C@H](C(C)C)NC(=O)[C@@H]2CCCN2C(=O)[C@H](C(C)C)NC(=O)[C@H](CCCNC(=N)N)NC(=O)[C@H](CC(=O)O)NC(=O)[C@@H]2CCCN2C(=O)CN(C)C(=O)[C@H](Cc2ccc(-c3ccccc3)cc2)NC(=O)[C@H](Cc2ccc(-c3ccccc3)cc2)NC(=O)[C@H](C(C)(C)O)NC(=O)CSC[C@@H](C(=O)NCC(N)=O)NC1=O [Example 64] ({CH2CO}-[Val(3-OH)][Bip][Bip][Sar]PDRVPVYLCG-NH2; thioether N-13) | 200 to 2000 |
| CC(C)C[C@@H]1NC(=O)[C@H](CCCNC(=N)N)NC(=O)[C@H](C(C)C)NC(=O)[C@@H]2CCCN2C(=O)[C@H](C(C)C)NC(=O)[C@H](CCCNC(=N)N)NC(=O)[C@H](CC(=O)O)NC(=O)[C@H](Cc2ccc(O)cc2)NC(=O)CN(C)C(=O)[C@H](Cc2ccc(-c3ccccc3)cc2)NC(=O)[C@H](Cc2ccc(-c3ccccc3)cc2)NC(=O)[C@H](C(C)(C)O)NC(=O)CSC[C@@H](C(=O)NCC(N)=O)NC1=O [Example 65] ({CH2CO}-[Val(3-OH)][Bip][Bip][Sar]YDRVPVRLCG-NH2; thioether N-13) | 50 to 200 |
| CC(C)C[C@@H]1NC(=O)[C@H](CCCNC(=N)N)NC(=O)[C@H](C(C)C)NC(=O)[C@@H]2CCCN2C(=O)[C@H](CC(N)=O)NC(=O)[C@H](CCCNC(=N)N)NC(=O)[C@H](CC(=O)O)NC(=O)[C@@H]2CCCN2C(=O)CN(C)C(=O)[C@H](Cc2ccc(-c3ccccc3)cc2)NC(=O)[C@H](Cc2ccc(-c3ccccc3)cc2)NC(=O)[C@H](CN2CCOCC2)NC(=O)CSC[C@@H](C(=O)NCC(N)=O)NC1=O [Example 67] ({CH2CO}-[Ala(morpholin-4-yl)][Bip][Bip][Sar]PDRNPVRLCG-NH2; thioether N-13) | 200 to 2000 |
| CC(C)C[C@@H]1NC(=O)[C@H](Cc2ccc(O)cc2)NC(=O)[C@H](C(C)C)NC(=O)[C@@H]2CCCN2C(=O)[C@H](C(C)C)NC(=O)[C@@H](CCCNC(=N)N)NC(=O)[C@H](CC(=O)O)NC(=O)[C@H](Cc2ccc(O)cc2)NC(=O)CN(C)C(=O)[C@H](Cc2ccc(-c3ccccc3)cc2)NC(=O)[C@H](Cc2ccc(-c3ccccc3)cc2)NC(=O)[C@H](CN2CCOCC2)NC(=O)CSC[C@@H](C(=O)NCC(N)=O)NC1=O [Example 68] ({CH2CO}-[Ala(morpholin-4-yl)][Bip][Bip][Sar]YD[dR]VPVYLCG-NH2; thioether N-13) | < 50 |
| CC(C)C[C@@H]1NC(=O)[C@H](Cc2ccc(O)cc2)NC(=O)[C@H](C(C)C)NC(=O)[C@@H]2CCCN2C(=O)[C@H](C(C)C)NC(=O)[C@@H](CCCNC(=N)N)NC(=O)[C@H](CC(=O)O)NC(=O)[C@H](Cc2ccc(O)cc2)NC(=O)CN(C)C(=O)[C@H](Cc2ccc(-c3ccccc3)cc2)NC(=O)[C@H](Cc2ccc(-c3ccccc3)cc2)NC(=O)[C@H](C(C)(C)O)NC(=O)CSC[C@@H](C(=O)NCC(N)=O)NC1=O [Example 69] ({CH2CO}-[Val(3-OH)][Bip][Bip][Sar]YD[dR]VPVYLCG-NH2; thioether N-13) | < 50 |
| CC(C)C[C@@H]1NC(=O)[C@H](CCCNC(=N)N)NC(=O)[C@H](C(C)C)NC(=O)[C@@H]2C[C@@H](O)CN2C(=O)[C@H](C(C)C)NC(=O)[C@H](CCCNC(=N)N)NC(=O)[C@H](CC(=O)O)NC(=O)[C@@H]2CCCN2C(=O)CN(C)C(=O)[C@H](Cc2ccc(-c3ccccc3)cc2)NC(=O)[C@H](Cc2ccc(-c3ccccc3)cc2)NC(=O)[C@H](CN2CCOCC2)NC(=O)CSC[C@@H](C(=O)NCC(N)=O)NC1=O [Example 70] ({CH2CO}-[Ala(morpholin-4-yl)][Bip][Bip][Sar]PDRV[Hyp]VRLCG-NH2; thioether N-13) | 200 to 2000 |
| CC(C)C[C@@H]1NC(=O)[C@H](CCCNC(=N)N)NC(=O)[C@H](C(C)C)NC(=O)[C@@H]2Cc3ccccc3CN2C(=O)[C@H](C(C)C)NC(=O)[C@H](CCCNC(=N)N)NC(=O)[C@H](CC(=O)O)NC(=O)[C@@H]2CCCN2C(=O)CN(C)C(=O)[C@H](Cc2ccc(-c3ccccc3)cc2)NC(=O)[C@H](Cc2ccc(-c3ccccc3)cc2)NC(=O)[C@H](CN2CCOCC2)NC(=O)CSC[C@@H](C(=O)NCC(N)=O)NC1=O [Example 71] ({CH2CO}-[Ala(morpholin-4-yl)][Bip][Bip][Sar]PDRV[Tic]VRLCG-NH2; thioether N-13) | 50 to 200 |
| CC(C)C[C@@H]1NC(=O)[C@H](CCCNC(=N)N)NC(=O)[C@H](C(C)C)NC(=O)[C@@H]2CCN2C(=O)[C@H](C(C)C)NC(=O)[C@H](CCCNC(=N)N)NC(=O)[C@H](CC(=O)O)NC(=O)[C@@H]2CCCN2C(=O)CN(C)C(=O)[C@H](Cc2ccc(-c3ccccc3)cc2)NC(=O)[C@H](Cc2ccc(-c3ccccc3)cc2)NC(=O)[C@H](CN2CCOCC2)NC(=O)CSC[C@@H](C(=O)NCC(N)=O)NC1=O [Example 72] ({CH2CO}-[Ala(morpholin-4-yl)][Bip][Bip][Sar]PDRV[Aze]VRLCG-NH2; thioether N-13) | 50 to 200 |
